From patent publication US4434290A, “Pyrido (4,3-B) carbazoles substituted in the 1 position by a polyamine chain” (priority 1978, dated 1984)

Key:
[1] = test system: cells of viro-induced leukemia of Friend; assay: In vitro cytotoxic study on cells of the Friend leukemia of the mouse (Table XV); assay type: cell-based
Description: "In vitro" cytotoxic study of the compounds of the invention on the cells of viro-induced leukemia of Friend in the mouse [J. Exp. Med. 1957, 105, p. 307-318].
The cells were grown in suspension in the RPMI 1640 medium [catalogue of GIBCO Bio-Cult-Ltd, Washington Road Sandyford Industrial Estate Paisley PA3 4EP Renfrewshire Scotland] supplement with 20% of embryonary calf serum, with penicillin and with streptopycin. The duplication time of the culture was about 11 hours. The growth factor is equal to 1 or very close to 1 (all the cells multiplying).
The cultures were seeded at times t=0 at the concentration of 2×10^5 cells per ml in Falcon dishes containing 4 ml of medium. 24 hours later, the product to be tested (in solution, in acetic water) was added, at the moment when the cells were in the exponential growth phase. 24 hours after the addition of the product, the cells were counted and the percentage of living cells determined by an exclusion test with trypan blue.

Friend's virus (VFA) [2] = assay: Anemia inducing Friend's virus, dose/effect relationship (Table XIX); assay type: in vivo, mice; conditions: for Death interval / ILS % / Mean survival time: VFA 1/800, D+1; for Surviving mice: groups of 10 mice
Source text: (§1) The following experiments related to the treatment of mice inoculated by the virus of Friend's leukemia.
(§2) In these experiments DBA2, male mice, aged from 2 to 3 months, of weight around 20 g, were used.
(§3) An anemia inducing strain of Friend's virus (VFA) maintained for several years in the laboratory was used. The viral stock was constituted by an acellular supernatant liquor obtained by the centrifugation of a ground product of leukemic spleens, carried out in an 0.5 M PBS-saccharose solution. The assay of the stock was done in vivo by the method described by JASMIN et al [J. Nat. Cancer Inst. 1974,53, 469-474]. The measurement is expressed in SD50 (50% spleen enlarging dose).
Experimental groups of 10 mice were used, into which the VFA virus (dilution 1/800-% of leukemias=100%) was injected on day Do. The compound 27 according to the invention was then injected at day D+1 at various doses according to the groups and the death interval, the mean survival time and the percentage of increased life span were determined.

L1210 cells = assay: In vitro cytotoxic study on leukemia L1210 cells, complete inhibition of growth (Table XVI); assay type: cell-based
Description: Cytotoxic "in vitro" study on hamster cells on leukemia L1210 cells of the serie.
After 5 hours, the cells were attached to a plastic support and the products to be tested whose solutions had been formed in water or in DMSO (dimethylsulphoxide) if the product was little soluble in water, was added. In the latter case a control was carried out with the same final concentration of DMSO in the culture medium.
The state of the cells was examined 24, 48 and 72 hours later.
In the case of the L1210 cells, the tests were carried out in a medium gelled with agarose, the L1210 cells growing in suspension.

leukemia L1210 [3] = assay: Leukemia L1210 in vivo, dose/effect relationship (Table XIV); set-up: species or system mice; conditions: for Death interval / ILS % / Mean survival time: 10^5 cells; for Death interval / ILS % / Mean survival time / Surviving mice: D+1; for Surviving mice: groups of six mice
Description: The properties were determined by the curative action inoculated experimental leukemia L1210. This leukemia was maintained on B6 D2 Fl (C 57 Bl/6×DBA/2) Fl mice in the proportion of 6 or 10 mice per experimental batch. The compounds to be tested were injected by the intraperitoneal route one or several days after inoculation of the cells (1 injection only). The death interval was determined, the first figure of the Table indicating the date of the first mouse death and the second the date of the last mouse death. The mean survival time was also measured (MST). A characteristic value is the percentage of increased life span (ILS %). This value (Cancer. Res. 1971, 31, 1883-1887) is the ratio: [formula] where S^t =survival of treated animals and
S^c =survival of control animals.
The study was carried out on experimental groups of six mice by the previously defined method. 10^5 cells were injected at day Do. […] The death interval was determined, the mean survival time was measured (MST) and the percentage of increased life span was calculated (ILS %) by the above-defined formula.

leukemia L1210 [4] = assay: Leukemia L1210 in vivo, effect of the day of inoculation (Table XIII); set-up: species or system mice; conditions: 15 mg/kg; for Death interval / ILS % / Mean survival time: 10^5 cells; for Surviving mice: groups of 6 mice
Description: The properties were determined by the curative action inoculated experimental leukemia L1210. This leukemia was maintained on B6 D2 Fl (C 57 Bl/6×DBA/2) Fl mice in the proportion of 6 or 10 mice per experimental batch. The compounds to be tested were injected by the intraperitoneal route one or several days after inoculation of the cells (1 injection only). The death interval was determined, the first figure of the Table indicating the date of the first mouse death and the second the date of the last mouse death. The mean survival time was also measured (MST). A characteristic value is the percentage of increased life span (ILS %).
S^c =survival of control animals.
As in the above test the death interval was determined, the mean survival time (MST) was measured and the percentage of increased life span (ILS %) was calculated.

Friend's virus (VFA) [5] = assay: Anemia inducing Friend's virus, measurement of survival time (Table XVIII); assay type: in vivo, mice; conditions: 15 mg/kg; for Death interval / Mean survival time / ILS %: D+1
Source text: as §1, §2, §3
In another series of tests, the mortality of the mice, in which the Friend's virus was injected (VFA) by the intraperitoneal route (dilution 1/800) and the death intervalwere determined, the mean survival time and the percentage of increased life span for the compound 27 according to the invention inoculated on day D+1 at the dose of 15 mg/kg were calculated.

[6] = test system: virus of Friend's leukemia (VFA); assay: Friend's leukemia, measurement of splenomegaly (Table XVII); assay type: in vivo, DBA2 male mice; conditions: for Mean weight of the spleen: 10 mg/kg (0.2 mg/mouse), day +15; for Mean weight of the spleen / Number of leukemic mice: D + 1; for Number of leukemic mice: 10 mg/kg, spleen >250 mg
Source text: as §1, §2, §3
The Friend virus was injected in the mouse by the intraperitoneal route. […] The spleens were removed and then weighed individually.

[7] = VFA 1/800, % of leukemias = 99.8
[8] = VFA 1/800, % of leukemias = 100%

Q: For `CCN(CC)CCCNc1nccc2c(C)c3[nH]c4ccc(OC)cc4c3c(C)c12` [Compound 27], which IC50 ([1]; Mus musculus, 24 h, read-out: LD 50 (50% lethal dose)) is on record?
A: The IC50 was 450 nM.

Q: And the IC100 ([1]; Mus musculus, 24 h, read-out: LD 100 (100% lethal dose))?
A: The IC100 was 1.2 µM.

Q: What about the “LD 50 HUM / LD 50 product” value ([1]; ratio to reference HUM) of the same molecule?
A: The value was 0.65.

Q: And the deaths through toxicity (Friend's virus (VFA) [2]; 15 mg/kg, group of 10 mice)?
A: Its deaths through toxicity is “Two”.

Q: What about the “dose/effect relationship” value (Friend's virus (VFA) [2]; 5-15 mg/kg) of the same molecule?
A: The value was “proportional to the inoculated dose”.

Q: And the Death interval (Friend's virus (VFA) [2]; 5 mg/kg)?
A: Its Death interval is 25-36.

Q: And the ILS % (Friend's virus (VFA) [2]; 5 mg/kg)?
A: The ILS % was 31.78%.

Q: And the Mean survival time (Friend's virus (VFA) [2]; 5 mg/kg)?
A: The Mean survival time was 31.1.

Q: And the Death interval (Friend's virus (VFA) [2]; 10 mg/kg)?
A: The Death interval was 32-64.

Q: And the ILS % (Friend's virus (VFA) [2]; 10 mg/kg)?
A: Its ILS % is 103%.

Q: And the Mean survival time (Friend's virus (VFA) [2]; 10 mg/kg)?
A: Its Mean survival time is 45.8.

Q: What about the Death interval (Friend's virus (VFA) [2]; 15 mg/kg) of the same molecule?
A: Its Death interval is 33-63.

Q: What about the Mean survival time (Friend's virus (VFA) [2]; 15 mg/kg) of the same molecule?
A: The Mean survival time was 49.9.

Q: And the ILS % (Friend's virus (VFA) [2]; 15 mg/kg, toxic deaths excluded)?
A: The ILS % was 122%.

Q: What about the Surviving mice (Friend's virus (VFA) [2]; 5 mg/kg) of the same molecule?
A: The Surviving mice was 0 mice.

Q: What about the Surviving mice (Friend's virus (VFA) [2]; 10 mg/kg) of the same molecule?
A: Its Surviving mice is 0 mice.

Q: What about the Surviving mice (Friend's virus (VFA) [2]; 15 mg/kg) of the same molecule?
A: Its Surviving mice is 0 mice.

Q: And the IC (100 (complete growth inhibition, minimal)) (L1210 cells; Mus musculus, L1210, medium gelled with agarose, read-out: Minimal dose leading to a complete inhibition of the growth)?
A: Its IC (100 (complete growth inhibition, minimal)) is 0.6 µM.

Q: And the “activity compared with the reference BD40” value (L1210 cells; summary of Table XVI)?
A: Its value is “almost as active as the reference dipyrido-indole (BD40)”.

Q: What about the “dose/effect relationship” value (leukemia L1210 [3]; 5-20 mg/kg, day D+1) of the same molecule?
A: Its value is “proportional to the dose inoculated”.

Q: And the Death interval (leukemia L1210 [3]; 5 mg/kg)?
A: The Death interval was 16-24.

Q: And the ILS % (leukemia L1210 [3]; 5 mg/kg)?
A: The ILS % was 80.4%.

Q: And the Mean survival time (leukemia L1210 [3]; 5 mg/kg)?
A: The Mean survival time was 19.3.

Q: What about the Death interval (leukemia L1210 [3]; 10 mg/kg) of the same molecule?
A: Its Death interval is 14-21.

Q: What about the ILS % (leukemia L1210 [3]; 10 mg/kg) of the same molecule?
A: The ILS % was 57%.

Q: What about the Mean survival time (leukemia L1210 [3]; 10 mg/kg) of the same molecule?
A: The Mean survival time was 16.8.

Q: What about the Death interval (leukemia L1210 [3]; 15 mg/kg) of the same molecule?
A: The Death interval was 13-31.

Q: And the ILS % (leukemia L1210 [3]; 15 mg/kg)?
A: Its ILS % is 96.3%.

Q: And the Mean survival time (leukemia L1210 [3]; 15 mg/kg)?
A: Its Mean survival time is 21.

Q: And the Death interval (leukemia L1210 [3]; 20 mg/kg)?
A: Its Death interval is 15-25.

Q: And the ILS % (leukemia L1210 [3]; 20 mg/kg)?
A: Its ILS % is 75.7%.

Q: And the Mean survival time (leukemia L1210 [3]; 20 mg/kg)?
A: Its Mean survival time is 18.8.

Q: What about the Surviving mice (leukemia L1210 [3]; 5 mg/kg) of the same molecule?
A: Its Surviving mice is 0 mice.

Q: And the Surviving mice (leukemia L1210 [3]; 10 mg/kg)?
A: The Surviving mice was 0 mice.

Q: What about the Surviving mice (leukemia L1210 [3]; 15 mg/kg) of the same molecule?
A: The Surviving mice was 0 mice.

Q: And the Surviving mice (leukemia L1210 [3]; 20 mg/kg)?
A: Its Surviving mice is 1 mice.

Q: And the “activity by day of inoculation” value (leukemia L1210 [4])?
A: Its value is “more active one day after inoculation of the cells”.

Q: What about the Death interval (leukemia L1210 [4]; D+1) of the same molecule?
A: The Death interval was 15-29.

Q: What about the ILS % (leukemia L1210 [4]; D+1) of the same molecule?
A: The ILS % was 82.6%.

Q: And the Mean survival time (leukemia L1210 [4]; D+1)?
A: The Mean survival time was 21.

Q: And the Death interval (leukemia L1210 [4]; D+2)?
A: The Death interval was 15-35.

Q: And the ILS % (leukemia L1210 [4]; D+2)?
A: The ILS % was 88.7%.

Q: And the Mean survival time (leukemia L1210 [4]; D+2)?
A: The Mean survival time was 21.7.

Q: And the Death interval (leukemia L1210 [4]; D+3)?
A: Its Death interval is 13-25.

Q: And the ILS % (leukemia L1210 [4]; D+3)?
A: The ILS % was 56.5%.

Q: What about the Mean survival time (leukemia L1210 [4]; D+3) of the same molecule?
A: Its Mean survival time is 18.

Q: And the Death interval (leukemia L1210 [4]; D+4)?
A: The Death interval was 14-20.

Q: What about the ILS % (leukemia L1210 [4]; D+4) of the same molecule?
A: The ILS % was 39.1%.

Q: And the Mean survival time (leukemia L1210 [4]; D+4)?
A: Its Mean survival time is 16.

Q: And the Death interval (leukemia L1210 [4]; Do(+3h))?
A: Its Death interval is 16-25.

Q: And the ILS % (leukemia L1210 [4]; Do(+3h))?
A: The ILS % was 80%.

Q: What about the Mean survival time (leukemia L1210 [4]; Do(+3h)) of the same molecule?
A: The Mean survival time was 20.7.

Q: And the Surviving mice (leukemia L1210 [4]; D+1)?
A: Its Surviving mice is 2 mice.

Q: And the Surviving mice (leukemia L1210 [4]; D+2)?
A: The Surviving mice was 0 mice.

Q: And the Surviving mice (leukemia L1210 [4]; D+3)?
A: The Surviving mice was 0 mice.

Q: What about the Surviving mice (leukemia L1210 [4]; D+4) of the same molecule?
A: The Surviving mice was 0 mice.

Q: And the Surviving mice (leukemia L1210 [4]; Do(+3h))?
A: Its Surviving mice is 0 mice.

Q: And the Death interval (Friend's virus (VFA) [5]; [7])?
A: Its Death interval is 20-64.

Q: And the Mean survival time (Friend's virus (VFA) [5]; [7])?
A: The Mean survival time was 42.2.

Q: And the ILS % (Friend's virus (VFA) [5]; VFA 1/800, % of leukemias = 99.8, on the surviving mice)?
A: The ILS % was 40%.

Q: And the Survive (Friend's virus (VFA) [5]; VFA 1/800, % of leukemias = 99.8, group of 10 mice)?
A: Its Survive is 0.

Q: And the Death interval (Friend's virus (VFA) [5]; [8])?
A: The Death interval was 48-72.

Q: What about the ILS % (Friend's virus (VFA) [5]; [8]) of the same molecule?
A: The ILS % was 143.85%.

Q: What about the Mean survival time (Friend's virus (VFA) [5]; [8]) of the same molecule?
A: The Mean survival time was 59.5.

Q: And the “protective power on Friend's leukemia” value ([6]; mouse, in vivo)?
A: Its value is “has a protective power on Friend's leukemia”.

Q: What about the “Mean weight of the spleen” value ([6]; virus dilution 1/800) of the same molecule?
A: The value was 183 mg.

Q: And the “Number of leukemic mice” value ([6]; virus dilution 1/800)?
A: The value was 2/10.

Q: And the “Mean weight of the spleen” value ([6]; virus dilution 1/1600)?
A: Its value is 199 mg.

Q: What about the “Number of leukemic mice” value ([6]; virus dilution 1/1600) of the same molecule?
A: Its value is 0/5.

Q: And the “Mean weight of the spleen” value ([6]; virus dilution 1/3200)?
A: Its value is 220 mg.

Q: And the “Number of leukemic mice” value ([6]; virus dilution 1/3200)?
A: Its value is 1/5.
